One series has as its system MC3T3-E1 cells. As to the kind of experiment: Osteoblast activation, ALP activity in MC3T3-E1. It is filed as cell-based, mouse. As to the method: (§1) MC3T3-E1 cells ((IAA) the Institution of Physical and Chemical Research), osteoblast-like cell line derived from the mouse fetus cranial bone cells, were inoculated into the 96 well plate at 4,000 cells/well. As a medium, the basal medium prepared in the Example 3 supplemented with fargesin at 2 to 80 μM was used. Pre-culture was performed by using the basal medium only under the conditions of 5% CO2 and 37 degree centigrade for 3 days. After that, the conditioned medium was changed to fresh medium with fargesin; the culture was performed under the conditions of 5% CO2 and 37 degree centigrade for 3 days. On the day 4 from the culture start, the conditioned medium was changed to the fresh medium; the culture was further performed under the conditions of 5% CO2 and 37 degree centigrade for 3 days. After the termination of the culture, the following MTT test, measurement of ALP activities, and the staining were performed.
Measurement of the ALP activity, statistical processing of the data, and the observation of differentiated cells were performed as the same way as those in Example 3, except the staining of the osteoclast cells were omitted.

The test system of another series is TRACP5b. As to the kind of experiment: Serum TRACP5b of OVX mice (bone metabolism marker). Format: in vivo, mouse. As to the method:
All obtained blood from the heart under diethyl ether anesthesia at dissection was stored at 4 degree centigrade for 24 hours. Then, the blood was centrifuged at 3,000 rpm (4,000×g) for 15 minutes to separate the sera.
According to the protocol of Mouse TRAP™ Assay (Immuno-diagnostic Systems Ltd, the United of Kingdom), TRACP5b in the obtained sera was determined.

Series [1] can be described thus: Cell viability, MTT test in MC3T3-E1. It is filed as cell-based. The settings on record: mouse, MC3T3-E1 cells (osteoblast-like cell line), MC3T3-E1, negative control = 100. As to the method:
as §1
Cell viability was measured by using MTT test. MTT reagent was prepared by dissolving 50 mg of 3-(4,5-dimethyl-thiazol-2-yl)-2,5-diphenyl tetrazolium bromide in 10 ml of PBS (−). After the termination of the culture, the medium containing fargesin was partially removed from each well to adjust the solution volume to 100 μL. Ten μl of the MTT reagent was then added to each well to be reacted to give blue-violet color in the CO2 incubator.
After the termination of the reaction, all medium was removed from each well, 100 μl of DMSO as a lysis solution was added to each well, and then the absorbance was measured at 570 nm to study the viability of live cells.

Series [2] deals with BMCs and UAMS-32 cells co-culture. As to the kind of experiment: Differentiation of osteoblast and osteoclast in co-culture (ALP and TRAP activity). It is filed as cell-based, mouse. Conditions: for activity at 2 µM / activity at 6 µM / activity at 20 µM / activity at 60 µM / activity at 80 µM: Mus musculus, 120 h, 5 days co-culture, negative control = 100%. As to the method:
Four-week-old ddY male mice (Japan SLC, Inc.) were killed by the cervical dislocation, and then, the long bones of left and right lower extremities were excised with muscles. All of the muscles were removed from the bones, and the femurs and shinbones were obtained. The both ends of the obtained femurs and shinbones were scraped a little by a little. The cells in the bone morrow were pushed out into the following medium by using a 2.5 ml of syringe with a needle (22G×1¼; Thermo corporation). After that, contaminants were eliminated through a filter ([…] Nylon Cell Strainer; Japan Becton, Dickinson and Company) to obtain more than 2×10^8 cells of BMCs.
Osteoblast-like cells, UAMS-32 cells, were purchased from the Institution of Physical and Chemical Research (Japan).
In order to prepare the basic medium, 10.2 g of α-MEM (powder, Life Technologies Japan Corporation (GIBCO)) was dissolved in 1 L of purified water and 2.2 g/l (w/v) of sodium bicarbonate was added. Then, it was filtered through a sterilized filter of which pore diameter was 0.22 μm (Nihon Millipore K. K). Further, the basic mediums were supplemented with 10% (v/v) fetal bovine serum (FBS) (Sigma, heat-inactivated for 30 minutes at 56° C.).
In this example, 1 μM of PGE2 and 10 nM of Vitamin D3 (both from Wako Pure Chemical Industries, Ltd.) were added to the medium to prepare a co-culture medium. By using the co-culture medium, cell suspensions of BMCs and UAMS-32 obtained as mentioned above were prepared. For the test group, 2 to 80 μM of fargesin was added, and for the negative control group, DMSO was added so as to be 0.3% of the final concentration.
BMCs were plated at the concentration of 2×10^6 cells/well, and UAMS-32 cells were plated at the concentration of 1×10^5 cells/well in each well of the 96 well plates, respectively. Then, the cells were co-cultured in the co-culture medium under the conditions of 5% CO2 and 37 degree centigrade for 5 days. The medium were changed on the 3rd days from the culture start. After cells were fixed as described in below, alkaline phosphatase (ALP) activity was measured as the index of osteoblast differentiation; tartrate-resistant acid phosphatase activity was measured as the index of osteoclast differentiation.
The cells were cultured under the above-mentioned conditions, 10% formalin aqueous solution was added into each well still standing for 10 minutes, and then ethanol was added still standing for further 1 minute to fix the cells. In order to measure TRAP activity, 10 mM sodium tartrate/50 mM citric acid buffer solution containing 1.36 mg of p-nitrophenyl sodium phosphate (Sigma-Aldrich Co. LLC.) (pH 4.6) was prepared as a substrate solution for TRAP. The substrate solution for TRAP was added to the well at the volume of 100 μl/well, and reacted for 15 to 20 minutes at a room temperature. The reaction solution was transferred into another 96 well plate, to which 100 μl/well of 0.1N NaOH was previously added to stop the reaction, and they were measured at absorbance of 405 nm.
50 mM sodium tartrate/0.1 M of sodium acetate buffer (pH 5.0) including 0.1 mg/ml naphthol AS-MX phosphate (sigma N-4875) and 0.6 mg/ml Fast red violet LB salt (both from Sigma-Aldrich Japan Co. LLC.) was prepared as TRAP staining solution. The TRAP staining solution was added to the wells to stain the cells in negative control group till they took on red color under room temperature. After that, the cells were washed with distilled water. The cells stained red and having not less than two nuclei was decided as multinuclear osteoclast, of which number was counted by using the microscope.
After the cells were cultured under the conditions, 100 μl/well of methanol cooled to −20 degree centigrade was added into the cells and stood for further 1 minute to fix the cells. […]

This is an account of results in patent publication US20130253048A1, “Pharmaceutical Composition for Promoting Osteogenesis Containing Axial-equatorial Aryl-oriented Furofuran-type Lignan, and Pharmaceutical Preparation, Functional Food Product, and Health Food Product Comprising Composition” (ERINA CO., INC., priority 2010, published 2013).

Like-named read-outs stand apart in the source and are kept apart here.

On to `COc1ccc([C@@H]2OC[C@H]3[C@@H]2CO[C@@H]3c2ccc3c(c2)OCO3)cc1OC` [fargesin, Fargesin], for which the “ALP stained image of osteoblast-like cells” value in the series with MC3T3-E1 cells (60 to 80 μM, MC3T3-E1) was “many osteoblast stained in blue were observed”. In addition, the activity at 2 µM was 82.8 ± 8% in the series on MC3T3-E1 cells (Mus musculus, 2 μM, MC3T3-E1, negative control = 100); 113 ± 15.7% in series [2] (read-out: ALP activity (%)); 89.5 ± 5.4% in series [2] (read-out: TRAP activity (%)). Also, the activity at 6 µM with MC3T3-E1 cells (Mus musculus, 6 μM, MC3T3-E1, negative control = 100) was determined as 89.8 ± 9.8%; in series [2] (read-out: ALP activity (%)) it was 120 ± 10.1%; in series [2] (read-out: TRAP activity (%)), 88.7 ± 7.2%. The activity at 20 µM in the series with MC3T3-E1 cells (Mus musculus, 20 μM, MC3T3-E1, negative control = 100) was 99.8 ± 13.4%; in series [2] (read-out: ALP activity (%)), 146 ± 14.4%; in series [2] (read-out: TRAP activity (%)), 74.4 ± 8.5%. Moreover, the activity at 60 µM in the series with MC3T3-E1 cells (Mus musculus, 60 μM, MC3T3-E1, negative control = 100) was 180 ± 31.5%; in series [2] (read-out: ALP activity (%)), 164 ± 14%; in series [2] (read-out: TRAP activity (%)), 42.4 ± 7.1%. Further, the activity at 80 µM in the series on MC3T3-E1 cells (Mus musculus, 80 μM, MC3T3-E1, negative control = 100) amounted to 167 ± 32.7%; in series [2] (read-out: ALP activity (%)) it was 199 ± 14.6%; in series [2] (read-out: TRAP activity (%)) it was 35.7 ± 5.6%. Besides, the “level of TRACP5b in the sera” value in the series with TRACP5b (40 mg administration group p.o.) is “significantly decreased”; with TRACP5b (2, 20, 40 mg/kg/day p.o.), “dose-dependently decreased”. Besides, the viability at 6 days, 2 µM in series [1] (2 μM) was determined as 106 ± 3.2%. Moreover, in series [1] (6 μM), the viability at 6 days, 6 µM was determined as 105 ± 3.3%. Also, the viability at 6 days, 20 µM in series [1] (20 μM) came to 100 ± 3.4%. Also, the viability at 6 days, 60 µM in series [1] (60 μM) was 89.1 ± 3.9%. The viability at 6 days, 80 µM in series [1] (80 μM) is 92.6 ± 3.7%. Further, in series [2] (60 to 80 μM, co-culture), the “cells differentiated to the osteoclast, ALP and TRAP double staining” value is given as “rarely observed”.
